# Results reported in PubChem BioAssay AID1963425 (Molecular Pharmacology Branch, DTP, NCI, 2024).
# System: 323965-272-R-J2-PDC complex spheroid growth, % test/control
# Assay: Anticancer human tumor 323965-272-R-J2-PDC patient-derived pancreatic carcinoma cell line growth inhibition [Asc]
# Conditions: for IC50: curve of first compound; for viability, T/C: stronger effect = lower value
# Method: Multicellular complex tumor spheroid response to apoptosis pathway targeting inhibitors Alrizomadlin, Pelcitoclax, and Dasminapant in combination with a variety of drugs and investigational agents in selected tumor cell lines
# The MDM2 inhibitor alrizomadlin, the Bcl-2/Bcl-xL inhibitor pelcitoclax, and the IAPs inhibitor dasminapant were evaluated both individually and in combination with standard of care and investigational anticancer small molecules within a complex spheroid model of solid tumors. . Complex spheroids include a stromal component modeled by human endothelial cells (HUVEC) and fibroblasts modeled by human mesenchymal stem cells (MSCs). The concentration ranges selected for each drug and investigational agent were based upon clinically achievable concentrations if the clinical Cmax of the agent was known.
# Compounds. The drugs and investigational agents: alrizomadlin (APG-115; NSC831270), pelcitoclax (APG-1252; NSC835773), dasminapant (APG-1387;NSC834197), TAK-243 (NSC785004), copanlisib (NSC809693), olaparib (NSC753686), talazoparib (NSC767125), cobimetinib (NSC 768068), eltanexor (KPT-8602, NSC 794443), abemaciclib (NSC 768073), sotorasib (NSC818433), adagrasib (NSC 831453), MRTX-1133 (NSC 836407), Iadademestat (ORY1001, NSC 806812), and RMC-4630 (NSC839698), were obtained from the NCI Developmental Therapeutics Program Chemical Repository. The FDA-approved anticancer drug set is available from the Developmental Therapeutics Program at https://dtp.cancer.gov/organization/dscb/obtaining/available plates.htm. […] The stock solutions were prepared in dimethyl sulfoxide (DMSO, Sigma-Aldrich, St. Louis, MO, cat. D2650) at 800-fold the tested concentration and stored at -70 degrees C prior to their use. All drugs and investigational agents were tested over a range starting from a high concentration at or near the clinical Cmax and decreasing in half-log increments. If the clinical Cmax for an agent had not been determined, the highest concentration tested was 10 microM.
# The patient-derived cancer (PDC) cell lines include five colon adenocarcinomas: 186277-243-T-J2-PDC, 616215-338-R-J1-PDC, 439559-082-T-J2-PDC, 463943-066-T-J2-PDC, and 519858-162-T-J1-PDC; three pancreatic carcinomas: 323965-272-R-J2-PDC, 521955-158-R6-J3-PDC, and 521955-158-R2-J5-PDC; two uterine sarcomas: 327498-152-R-J2-PDC and 993429-296-R-J1-PDC; two rhabdomyosarcomas: 755483-174-R-J1-PDC and 772245-204-R-J1-PDC; two soft tissue sarcomas: 126254-015-R-J1-PDC and 494315-158-R-J1-PDC; two malignant fibrous histiocytomas: 317291-083-R-J1-PDC and 596521-263-R-J1-PDC; two breast carcinomas: 171881-019-R-J1-PDC and 885512-296-R-J2-PDC; and one ovarian carcinoma: 6556581-035-R-J-PDC were obtained from the NCI PDMR, (https://pdmr.cancer.gov). The established cell lines HSSY-2 synovial sarcoma (RRID:CVCL 8719), SYO-1 synovial sarcoma (RRID:CVCL_7146), MPNST malignant peripheral neural sheath tumor were obtained from the Sloan Kettering Institute. The following established cell lines were purchased from the American Type Culture Collection (ATCC, Manassas, VA), Sor the received from the NCI repository:, PANC-1 pancreatic carcinoma (CRL-1469, RRID:CVCL_0480), OVCAR-5 ovarian carcinoma (RRID:CVCL_1628), OVCAR-8 ovarian carcinoma (RRID:CVCL_1629), , MCF-7 breast carcinoma (CRL-12584, RRID:CVCL_0031), MDA-MB-231 breast carcinoma (CRL-12532, RRID:CVCL_0062), NCI-H1876 small cell lung carcinoma (CRL-5902, RRID:CVCL_1503), NCI-H510A small cell lung carcinoma (HTB-184, RRID:CVCL_1565), NCI-H1417 (CRL-5869, RRID:CVCL_1469), and NCI-H196 small cell lung carcinoma (CRL-5823, RRID:CVCL_1509). Dr. Peter Houghton (Greehey Children's Cancer Research Institute, University of Texas Health Science Center, San Antonio, TX) provided Rh-18 rhabdomyosarcoma (RRID:CVCL_1659). Pooled donor human umbilical vein endothelial cells (HUVEC, Lonza, cat. CC-2519) and human mesenchymal stem cells (hMSC, Lonza, cat. PT-2501) were purchased from Lonza (Walkersville, MD).
# Cell Culture. […]
# [1] = second compound 0.00949 µM, first compound 0.00316 µM
# [2] = second compound 0.00949 µM, first compound 0.01 µM
# [3] = second compound 0.00949 µM, first compound 0.0316 µM
# [4] = second compound 0.00949 µM, first compound 0.1 µM
# [5] = second compound 0.00949 µM, first compound 0.316 µM
# [6] = second compound 0.00949 µM, first compound 1 µM
# [7] = second compound 0.03 µM, first compound 0.00316 µM
# [8] = second compound 0.03 µM, first compound 0.01 µM
# [9] = second compound 0.03 µM, first compound 0.0316 µM
# [10] = second compound 0.03 µM, first compound 0.1 µM
# [11] = second compound 0.03 µM, first compound 0.316 µM
# [12] = second compound 0.03 µM, first compound 1 µM
# [13] = second compound 0.0949 µM, first compound 0.00316 µM
# [14] = second compound 0.0949 µM, first compound 0.01 µM
# [15] = second compound 0.0949 µM, first compound 0.0316 µM
# [16] = second compound 0.0949 µM, first compound 0.1 µM
# [17] = second compound 0.0949 µM, first compound 0.316 µM
# [18] = second compound 0.0949 µM, first compound 1 µM
# [19] = second compound 0.3 µM, first compound 0.00316 µM
# [20] = second compound 0.3 µM, first compound 0.01 µM
# [21] = second compound 0.3 µM, first compound 0.0316 µM
# [22] = second compound 0.3 µM, first compound 0.1 µM
# [23] = second compound 0.3 µM, first compound 0.316 µM
# [24] = second compound 0.3 µM, first compound 1 µM
# [25] = second compound 0.949 µM, first compound 0.00316 µM
# [26] = second compound 0.949 µM, first compound 0.01 µM
# [27] = second compound 0.949 µM, first compound 0.0316 µM
# [28] = second compound 0.949 µM, first compound 0.1 µM
# [29] = second compound 0.949 µM, first compound 0.316 µM
# [30] = second compound 0.949 µM, first compound 1 µM
# [31] = second compound 3 µM, first compound 0.00316 µM
# [32] = second compound 3 µM, first compound 0.01 µM
# [33] = second compound 3 µM, first compound 0.0316 µM
# [34] = second compound 3 µM, first compound 0.1 µM
# [35] = second compound 3 µM, first compound 0.316 µM
# [36] = second compound 3 µM, first compound 1 µM
# 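Also: compound exposure lasted 7 days starting three days after spheroid seeding.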
# 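For viability, T/C in this document: 100% = DMSO vehicle control wells with viability set relative to vehicle.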
smiles,measurement,setting,value
CCN1CCN(Cc2ccc(Nc3ncc(F)c(-c4cc(F)c5nc(C)n(C(C)C)c5c4)n3)nc2)CC1 + CCN1C(C(=O)NC23CCC(C(=O)O)(CC2)CC3)C(c2cccc(Cl)c2F)C2(C(=O)Nc3cc(Cl)ccc32)C12CCCCC2,IC50,second compound 0.00949 µM,> 1000 nM
same,IC50,second compound 0.03 µM,> 1000 nM
same,IC50,second compound 0.0949 µM,> 1000 nM
same,IC50,second compound 0.3 µM,> 1000 nM
same,IC50,second compound 0.949 µM,> 1000 nM
same,IC50,second compound 3 µM,> 1000 nM
same,"viability, T/C",[1],107%
same,"viability, T/C",[2],107%
same,"viability, T/C",[3],105%
same,"viability, T/C",[4],86.2%
same,"viability, T/C",[5],68.7%
same,"viability, T/C",[6],77%
same,"viability, T/C",[7],103%
same,"viability, T/C",[8],104%
same,"viability, T/C",[9],96.7%
same,"viability, T/C",[10],84.5%
same,"viability, T/C",[11],69.5%
same,"viability, T/C",[12],65.8%
same,"viability, T/C",[13],118%
same,"viability, T/C",[14],112%
same,"viability, T/C",[15],92.2%
same,"viability, T/C",[16],80%
same,"viability, T/C",[17],70.3%
same,"viability, T/C",[18],65.2%
same,"viability, T/C",[19],111%
same,"viability, T/C",[20],104%
same,"viability, T/C",[21],96.6%
same,"viability, T/C",[22],78.9%
same,"viability, T/C",[23],85.1%
same,"viability, T/C",[24],77.1%
same,"viability, T/C",[25],99.8%
same,"viability, T/C",[26],107%
same,"viability, T/C",[27],95.9%
same,"viability, T/C",[28],85.8%
same,"viability, T/C",[29],73.1%
same,"viability, T/C",[30],77.5%
same,"viability, T/C",[31],101%
same,"viability, T/C",[32],115%
same,"viability, T/C",[33],97%
same,"viability, T/C",[34],77%
same,"viability, T/C",[35],78%
same,"viability, T/C",[36],78.9%
O=C(c1ccc(F)c(F)c1Nc1ccc(I)cc1F)N1CC(O)([C@@H]2CCCCN2)C1 + CCN1C(C(=O)NC23CCC(C(=O)O)(CC2)CC3)C(c2cccc(Cl)c2F)C2(C(=O)Nc3cc(Cl)ccc32)C12CCCCC2,IC50,second compound 0.00949 µM,119 nM
same,IC50,second compound 0.03 µM,150 nM
same,IC50,second compound 0.0949 µM,127 nM
same,IC50,second compound 0.3 µM,134 nM
same,IC50,second compound 0.949 µM,121 nM
same,IC50,second compound 3 µM,81 nM
same,"viability, T/C",[1],110%
same,"viability, T/C",[2],88.1%
same,"viability, T/C",[3],75%
same,"viability, T/C",[4],52.1%
same,"viability, T/C",[5],32.1%
same,"viability, T/C",[6],19.9%
same,"viability, T/C",[7],113%
same,"viability, T/C",[8],92%
same,"viability, T/C",[9],86.3%
same,"viability, T/C",[10],57.3%
same,"viability, T/C",[11],33.6%
same,"viability, T/C",[12],19.4%
same,"viability, T/C",[13],103%
same,"viability, T/C",[14],89.5%
same,"viability, T/C",[15],75.2%
same,"viability, T/C",[16],55.3%
same,"viability, T/C",[17],32.7%
same,"viability, T/C",[18],19.1%
same,"viability, T/C",[19],93.7%
same,"viability, T/C",[20],106%
same,"viability, T/C",[21],75.7%
same,"viability, T/C",[22],54.6%
same,"viability, T/C",[23],37.1%
same,"viability, T/C",[24],19.2%
same,"viability, T/C",[25],96.3%
same,"viability, T/C",[26],95.9%
same,"viability, T/C",[27],72.9%
same,"viability, T/C",[28],54%
same,"viability, T/C",[29],33.4%
same,"viability, T/C",[30],19.7%
same,"viability, T/C",[31],97.6%
same,"viability, T/C",[32],85.2%
same,"viability, T/C",[33],65.6%
same,"viability, T/C",[34],46.7%
same,"viability, T/C",[35],29.6%
same,"viability, T/C",[36],18.3%
